Reference: PubChem BioAssay AID1963851 (Molecular Pharmacology Branch, DTP, NCI, 2024)
pIC50: −log10 of the molar value.

Test system: 188146-221-R-J1-PDC complex spheroid viability
Experiment: Anticancer human tumor 188146-221-R-J1-PDC patient-derived colon adenocarcinoma cell line growth inhibition [POLQ]
Conditions: for pIC50: curve of first compound; for viability, T/C: stronger effect = lower value
Summary of the method: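 Complex spheroid viability model combining PDC tumour cells with endothelial (HUVEC) and MSC stromal cells. Novobiocin, ART-558 or RP6685 were tested singly and in combination with standard and investigational anticancer drugs. Each was titrated in half-log steps from near clinical Cmax, or from 10 microM where Cmax was unknown.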

[1] = second compound 0.0316 µM, first compound 0.0316 µM
[2] = second compound 0.0316 µM, first compound 0.1 µM
[3] = second compound 0.0316 µM, first compound 0.316 µM
[4] = second compound 0.0316 µM, first compound 1 µM
[5] = second compound 0.0316 µM, first compound 3.16 µM
[6] = second compound 0.0316 µM, first compound 10 µM
[7] = second compound 0.1 µM, first compound 0.0316 µM
[8] = second compound 0.1 µM, first compound 0.1 µM
[9] = second compound 0.1 µM, first compound 0.316 µM
[10] = second compound 0.1 µM, first compound 1 µM
[11] = second compound 0.1 µM, first compound 3.16 µM
[12] = second compound 0.1 µM, first compound 10 µM
[13] = second compound 0.316 µM, first compound 0.0316 µM
[14] = second compound 0.316 µM, first compound 0.1 µM
[15] = second compound 0.316 µM, first compound 0.316 µM
[16] = second compound 0.316 µM, first compound 1 µM
[17] = second compound 0.316 µM, first compound 3.16 µM
[18] = second compound 0.316 µM, first compound 10 µM
[19] = second compound 1 µM, first compound 0.0316 µM
[20] = second compound 1 µM, first compound 0.1 µM
[21] = second compound 1 µM, first compound 0.316 µM
[22] = second compound 1 µM, first compound 1 µM
[23] = second compound 1 µM, first compound 3.16 µM
[24] = second compound 1 µM, first compound 10 µM
[25] = second compound 3.16 µM, first compound 0.0316 µM
[26] = second compound 3.16 µM, first compound 0.1 µM
[27] = second compound 3.16 µM, first compound 0.316 µM
[28] = second compound 3.16 µM, first compound 1 µM
[29] = second compound 3.16 µM, first compound 3.16 µM
[30] = second compound 3.16 µM, first compound 10 µM
[31] = second compound 10 µM, first compound 0.0316 µM
[32] = second compound 10 µM, first compound 0.1 µM
[33] = second compound 10 µM, first compound 0.316 µM
[34] = second compound 10 µM, first compound 1 µM
[35] = second compound 10 µM, first compound 3.16 µM
[36] = second compound 10 µM, first compound 10 µM
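Also: spheroids exposed to compounds for seven days.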
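For viability, T/C in this document: 100% = DMSO vehicle control viability.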

With CCc1cc2c(N3CCc4c(cc(Cn5ccnc5)cc4-c4cn(C)nc4C(F)(F)F)C3=O)cc(C)nc2c(OC)n1 + Nc1ccc(C#CCN(C(=O)Cc2ncc(C(F)(F)F)cc2C(F)(F)F)c2ccc(F)cc2)nn1 the pIC50 (second compound 0.0316 µM) was 5.07, the pIC50 (second compound 0.1 µM) was 5.10 and the pIC50 (second compound 0.316 µM) was 5.16. The pIC50 (second compound 1 µM) was < 5.00, the pIC50 (second compound 3.16 µM) was 5.15 and the pIC50 (second compound 10 µM) was 5.09. The viability, T/C [1] was 89.1%, the viability, T/C [2] was 101% and the viability, T/C [3] was 74.4%. The viability, T/C [4] was 85.7%, the viability, T/C [5] was 71.2% and the viability, T/C [6] was 46.3%. It also gave a viability, T/C [7] of 119%, a viability, T/C [8] of 101% and a viability, T/C [9] of 103%. For the same compound, the viability, T/C [10] was 95%, the viability, T/C [11] was 66% and the viability, T/C [12] was 46%. The viability, T/C [13] was 120%, the viability, T/C [14] was 101% and the viability, T/C [15] was 94%. For the same compound, the viability, T/C [16] was 103%, the viability, T/C [17] was 66.1% and the viability, T/C [18] was 40.8%. The viability, T/C [19] was 107%, the viability, T/C [20] was 96.3% and the viability, T/C [21] was 104%. It also gave a viability, T/C [22] of 95.2%, a viability, T/C [23] of 85.5% and a viability, T/C [24] of 50.4%. For the same compound, the viability, T/C [25] was 111%, the viability, T/C [26] was 115% and the viability, T/C [27] was 109%. It also gave a viability, T/C [28] of 85.8%, a viability, T/C [29] of 68.8% and a viability, T/C [30] of 42.1%. For the same compound, the viability, T/C [31] was 93.7%, the viability, T/C [32] was 102% and the viability, T/C [33] was 99%. For the same compound, the viability, T/C [34] was 84.8%, the viability, T/C [35] was 69.5% and the viability, T/C [36] was 45.6%.
With CCCS(=O)(=O)Nc1ccc(F)c(C(=O)c2c[nH]c3ncc(-c4ccc(Cl)cc4)cc23)c1F + Cc1cccc(N(C)C(=O)C2C(O)CCN2c2nc(C)cc(C(F)(F)F)c2C#N)c1 the pIC50 (second compound 0.0316 µM) was 5.01, the pIC50 (second compound 0.1 µM) was 5.17 and the pIC50 (second compound 0.316 µM) was 5.19. It also gave a pIC50 (second compound 1 µM) of 5.19, a pIC50 (second compound 3.16 µM) of 5.15 and a pIC50 (second compound 10 µM) of 5.23. The viability, T/C [1] was 117%, the viability, T/C [2] was 96.5% and the viability, T/C [3] was 102%. For the same compound, the viability, T/C [4] was 87.1%, the viability, T/C [5] was 78.8% and the viability, T/C [6] was 47.3%. The viability, T/C [7] was 113%, the viability, T/C [8] was 97.3% and the viability, T/C [9] was 106%. For the same compound, the viability, T/C [10] was 91%, the viability, T/C [11] was 85.8% and the viability, T/C [12] was 33.4%. It also gave a viability, T/C [13] of 116%, a viability, T/C [14] of 112% and a viability, T/C [15] of 99.2%. For the same compound, the viability, T/C [16] was 88.3%, the viability, T/C [17] was 90.9% and the viability, T/C [18] was 29.2%. The viability, T/C [19] was 93.4%, the viability, T/C [20] was 98.1% and the viability, T/C [21] was 101%. The viability, T/C [22] was 90.6%, the viability, T/C [23] was 81.5% and the viability, T/C [24] was 30.7%. It also gave a viability, T/C [25] of 107%, a viability, T/C [26] of 104% and a viability, T/C [27] of 104%. It also gave a viability, T/C [28] of 77.4%, a viability, T/C [29] of 96.4% and a viability, T/C [30] of 31%. For the same compound, the viability, T/C [31] was 106%, the viability, T/C [32] was 97.7% and the viability, T/C [33] was 105%. It also gave a viability, T/C [34] of 85.1%, a viability, T/C [35] of 92.6% and a viability, T/C [36] of 13.4%.
In the case of COc1ccc([C@@H](O)c2cc(-c3ncnc4cc(N5CCOCC5)ccc34)c(F)cc2Cl)nn1 + Cc1cccc(N(C)C(=O)C2C(O)CCN2c2nc(C)cc(C(F)(F)F)c2C#N)c1, the pIC50 (second compound 0.0316 µM) was 5.24, the pIC50 (second compound 0.1 µM) was 5.25 and the pIC50 (second compound 0.316 µM) was 5.33. The pIC50 (second compound 1 µM) was 5.33, the pIC50 (second compound 3.16 µM) was 5.31 and the pIC50 (second compound 10 µM) was 5.73. It also gave a viability, T/C [1] of 97.6%, a viability, T/C [2] of 98% and a viability, T/C [3] of 87.9%. It also gave a viability, T/C [4] of 89.2%, a viability, T/C [5] of 72% and a viability, T/C [6] of 30.3%. For the same compound, the viability, T/C [7] was 93.6%, the viability, T/C [8] was 111% and the viability, T/C [9] was 94.3%. It also gave a viability, T/C [10] of 80.4%, a viability, T/C [11] of 61.7% and a viability, T/C [12] of 39.4%. The viability, T/C [13] was 100%, the viability, T/C [14] was 101% and the viability, T/C [15] was 100%. For the same compound, the viability, T/C [16] was 94%, the viability, T/C [17] was 59.4% and the viability, T/C [18] was 32%. It also gave a viability, T/C [19] of 97.9%, a viability, T/C [20] of 94.3% and a viability, T/C [21] of 94.4%. It also gave a viability, T/C [22] of 78.7%, a viability, T/C [23] of 59.6% and a viability, T/C [24] of 32.5%. It also gave a viability, T/C [25] of 97.3%, a viability, T/C [26] of 93.3% and a viability, T/C [27] of 90.5%. For the same compound, the viability, T/C [28] was 73.1%, the viability, T/C [29] was 61.7% and the viability, T/C [30] was 33.8%. The viability, T/C [31] was 88.2%, the viability, T/C [32] was 80.8% and the viability, T/C [33] was 85.9%. For the same compound, the viability, T/C [34] was 56.3%, the viability, T/C [35] was 51.9% and the viability, T/C [36] was 36.9%.
